The values that follow come from patent publication US6355616B1, “Derivative compounds derived from or based on bactericidal/permeability-increasing protein” (priority 1999, dated 2002).

In experiment [1] the test system is Candida albicans SLU-1. Briefly: Radial diffusion assay. The note with it: 30 mm^2 area of growth inhibition, calculated by PROBIT analysis. The class given is cell-based. Here is the method: In the radial diffusion assay procedures, the CA-1 cultures and derivatized peptide solutions were prepared as in the broth microdilution assay procedure described above, i.e., CA-1 was grown to exponential phase in SDB. Ten (10) mL of molten underlayer agarose comprising 3% Sabouraud Dextrose broth, 1% agarose (Pharmacia, Piscataway, N.J.), 0.02% Tween 20, and 10 mM sodium phosphate at pH 7.4, was added to polystyrene tubes and maintained in a 56° C. water bath until the addition of yeast. Tubes were cooled to approximately 45° C., yeast were added to give a final concentration of 1×10^6 CFU/mL, and the tubes were mixed again by inverting. The contents were poured into leveled, square petri dishes and distributed evenly. […] A series of wells were punched into the hardened agarose using a sterile 3 mm punch attached to a vacuum apparatus to achieve a uniform, 3 mm diameter well.
Derivatized peptide sequences to be assayed were 2-fold serially diluted in 10 mM Dulbecco's PBS (D-PBS) starting from a concentration of approximately […]. Five μL of each dilution were added to each well and the plates were incubated at 37° C. for 3 hours to allow for complete diffusion of the test compounds. An overlayer of 10 mL of molten agarose comprising 6% Sabouraud Dextrose broth, 1% agarose, and 10 mM sodium phosphate, pH 7.4, (at approximately 45° C.) was then added and plates were incubated overnight at 37° C. Following this overnight incubation, a dilute Coomassie solution was poured into the plates and allowed to stain for 24 hours to enhance visualization of the zones.
Clear zones of growth inhibition around each well were measured with calipers. The actual area of growth inhibition (mm^2) was calculated by subtracting the area of the well. Table II below sets out the results of the radial diffusion assays for a series of tested peptide-based constructs in terms of the number of picomoles (pmol) of compound required to establish a 30 mm^2 area of growth inhibition of Candida albicans SLU-1 calculated by PROBIT analysis (e.g., calculated from regression of the linear portion of log-concentration dose-response curve, log pmol/well vs. net area of inhibition).

In experiment [2] the test system is Candida albicans, SLU-1. Briefly: 28-day comparative survival efficacy study in mice systemically infected with Candida albicans. The class given is in vivo, male DBA/2 mice. The conditions noted are these: mice infected iv with C. albicans SLU-1; two doses less than 5 mg/kg; initial experiments (p>0.5). Here is the method:
Derivatized peptide-based constructs are tested for activity upon oral administration (oral activity) in a 28-day comparative survival efficacy study in mice systemically infected with Candida albicans. Specifically, male DBA/2 mice (Charles River Laboratories) six weeks of age are dosed with 7.9×10^4 Candida albicans, SLU-1 in 100 μL intravenously via the tail vein in a single dosage on day zero (0). However, other routes of administration, including intraperitoneal (ip) and subcutaneous (sc) routes may be administered. Amphotericin B will provide complete protection at 0.5 mg/kg qod (100% survival). Mortality data will be subjected to Kaplan-Meier survival analysis. All treatment groups may be considered statistically significant vs. saline at p values <0.05.
Treatment begins immediately thereafter with 400 μL oral gavage of either 0.5% dextrose, or derivative compound in 0.5% dextrose at various dosage levels (e.g., 10 mg/kg or 20 mg/kg) according to a prescribed dosing regimen (e.g. every other day for a total of eight times). Amphotericin B (Fungizone®) is administered intravenously at 0.5 mg/kg as a positive control every other day for a total of eight times. Twice-day monitoring (once daily on weekends and holidays) for mortality is performed. The animals treated with antiflngal derivative compound show improvement in mortality compared with the dextrose-treated controls, preferably statistically significant improvement (p-value of […]).

Turning to `CC[C@@H](C)[C@@H](NC(=O)[C@@H](CC(C)C)NC(=O)[C@@H](Cc1c[nH]c2ccccc12)NC(=O)[C@@H](CCCCN)NC(=O)c1ccccc1O)C(=O)N[C@H](CCC(N)=O)C(=O)N[C@H](CC(C)C)C(=O)N[C@H](Cc1ccccc1)C(=O)N[C@H](Cc1c[nH]cn1)C(=O)N[C@H](CCCCN)C(=O)N[C@H](CCCCN)C(N)=O` [XMP.560], the “Radial Diffusion (pmol to achieve 30 mm^2 zone C. albicans SLU1)” value in experiment [1] is 451 pmol. In experiment [2], the “improvement in mortality compared with dextrose-treated controls” value is “did not exhibit statistically significant improvement”.
